Assay results: the supplement of paper PMC11061612

Columns and labels:
Test in all cases: Bliss excess, mean over the matrix (fraction); higher = more synergy
[1] = system: NCI-H661 (Non-Small Cell Lung Carcinoma)
Procedure, shortened: (§1)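 Bliss excess equals the observed combination effect minus the expected value EA + EB − EA·EB, where EA and EB are the effects of each agent alone. Combination Emax is the second-highest inhibition within the matrix. Inhibition was scaled from CellTiter-Glo 2.0 luminescence, with 0 set by vehicle wells and 1 by blank wells, after 72 hours of two-drug dosing of cells plated in 1536-well plates.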

[2] = system: HCC1419 (Breast Carcinoma)
Procedure, shortened: as §1

[3] = system: SK-GT-4 (Esophageal Adenocarcinoma)
Procedure, shortened: as §1

[4] = system: ESO51 (Esophageal Adenocarcinoma)
Procedure, shortened: as §1

RD (Rhabdomyosarcoma) = system: RD (Rhabdomyosarcoma)
Procedure, shortened: as §1

[5] = system: NCI-H520 (Squamous Cell Lung Carcinoma)
Procedure, shortened: as §1

[6] = system: NCI-H3122 (Lung Adenocarcinoma)
Procedure, shortened: as §1

NCI-H2731 (Mesothelioma) = system: NCI-H2731 (Mesothelioma)
Procedure, shortened: as §1

[7] = system: CW-2 (Colorectal Carcinoma)
Procedure, shortened: as §1

[8] = system: SK-GT-2 (Gastric Carcinoma)
Procedure, shortened: as §1

[9] = system: T-T (Esophageal Squamous Cell Carcinoma)
Procedure, shortened: as §1

[10] = system: RPMI-8226 (Plasma Cell Myeloma)
Procedure, shortened: as §1

[11] = system: SNU-398 (Hepatocellular Carcinoma)
Procedure, shortened: as §1

[12] = system: COR-L279 (Small Cell Lung Carcinoma)
Procedure, shortened: as §1

[13] = system: SU-DHL-5 (B-Cell Non-Hodgkin's Lymphoma)
Procedure, shortened: as §1

[14] = system: 8505C (Thyroid Gland Carcinoma)
Procedure, shortened: as §1

[15] = system: KU812 (Chronic Myelogenous Leukemia)
Procedure, shortened: as §1

[16] = system: KMS-12-BM (Plasma Cell Myeloma)
Procedure, shortened: as §1

[17] = system: DMS-114 (Small Cell Lung Carcinoma)
Procedure, shortened: as §1

[18] = system: VMRC-RCZ (Kidney Carcinoma)
Procedure, shortened: as §1

SMILES	Bliss excess [1]	Bliss excess [2]	Bliss excess [3]	Bliss excess [4]	Bliss excess (RD (Rhabdomyosarcoma))	Bliss excess [5]	Bliss excess [6]	Bliss excess (NCI-H2731 (Mesothelioma))	Bliss excess [7]	Bliss excess [8]	Bliss excess [9]	Bliss excess [10]	Bliss excess [11]	Bliss excess [12]	Bliss excess [13]	Bliss excess [14]	Bliss excess [15]	Bliss excess [16]	Bliss excess [17]	Bliss excess [18]
Cn1cnc2c(F)c(Nc3ccc(Br)cc3Cl)c(C(=O)NOCCO)cc21 [Selumetinib] + C[C@@H]1COCCN1C2=NC(=NC(=C2)C3(CC3)[S@](=N)(=O)C)C4=C5C=CNC5=NC=C4 [AZD6738] (first compound max 10 µM, 7x7, partner max 10 µM)	-0.0627	-0.0522	0.017	0.0119	0.0877	-0.0804	-0.0471	-0.0187	0.009	-0.0229	-0.041	0.0032	0.0082	-0.0377	0.074	0.111	-0.0779	0.0112	-0.0395	-0.0594
Cc1c2c(nn1C)CSCc1cc(n(C)n1)CSc1cc(c3ccccc3c1)OCCCc1c(C(=O)O)n(C)c3c-2c(Cl)ccc13 [AZD5991] + CN(C)CCCOc1ccc(-c2ccc3ncc4c(c3c2)n(C2CCOCC2)c(=O)n4C)cn1 [AZD0156] (first compound max 1 µM, 7x7, partner max 1 µM)	-0.0054	0.0105	-0.031	0.0193	0.0095	-0.0011	0.0187	-0.0444	0.0041	0.0228	-0.0025	0.0147	-0.0018	-0.0051	-0.0041	-0.137	-0.0788	-0.0445	0.003	-0.018
CN(C)CCCOc1ccc(-c2ccc3ncc4c(c3c2)n(C2CCOCC2)c(=O)n4C)cn1 [AZD0156] + C[C@@H]1COCCN1C2=NC(=NC(=C2)C3(CC3)[S@](=N)(=O)C)C4=C5C=CNC5=NC=C4 [AZD6738] (first compound max 1 µM, 7x7, partner max 10 µM)	0.0059	-0.0295	-0.0006	-0.0449	-0.0333	-0.0064	0.0218	-0.0532	-0.0131	0.0033	-0.014	0.102	-0.0039	-0.0547	0.0265	0.0051	-0.0299	0.117	-0.0138	-0.0479
COc1nnc2ccc(N3CCC(c4ccc(OCCN5CCN(C)C(=O)[C@H]5C)cc4)CC3)nn12 [AZD5153] + CC1(C)CCC(CN2CCN(c3ccc(C(=O)NS(=O)(=O)c4ccc(NCC5CCOCC5)c([N+](=O)[O-])c4)c(Oc4cnc5[nH]ccc5c4)c3)CC2)=C(c2ccc(Cl)cc2)C1 [Venetoclax] (first compound max 1 µM, 7x7, partner max 1 µM)	-0.0574	-0.0499	-0.0444	-0.0346	-0.041	-0.0179	-0.0372	-0.085	-0.0642	-0.028	-0.0319	-0.0035	-0.126	-0.0945	-0.0107	-0.07	-0.058	0.0033	-0.0732	-0.0224
Cn1cnc2c(F)c(Nc3ccc(Br)cc3Cl)c(C(=O)NOCCO)cc21 [Selumetinib] + C=CCn1c(=O)c2cnc(Nc3ccc(N4CCN(C)CC4)cc3)nc2n1-c1cccc(C(C)(C)O)n1 [AZD1775] (first compound max 10 µM, partner max 1 µM)	-0.0891	-0.0697	-0.0203	-0.0767	-0.0128	-0.0795	-0.126	-0.042	-0.005	-0.0872	-0.056	0.0433	0.0182	0.0006	0.0041	0.0279	-0.0367	-0.0355	-0.0351	-0.066
COc1nnc2ccc(N3CCC(c4ccc(OCCN5CCN(C)C(=O)[C@H]5C)cc4)CC3)nn12 [AZD5153] + C=CCn1c(=O)c2cnc(Nc3ccc(N4CCN(C)CC4)cc3)nc2n1-c1cccc(C(C)(C)O)n1 [AZD1775] (first compound max 1 µM, partner max 1 µM)	-0.019	-0.0724	-0.0369	-0.0594	-0.0171	-0.0115	-0.0461	0.0147	0.0072	-0.0008	-0.029	-0.0059	-0.0315	-0.0192	0.0156	0.0074	-0.0632	-0.0243	-0.0367	-0.0287
CC1(C)CCC(CN2CCN(c3ccc(C(=O)NS(=O)(=O)c4ccc(NCC5CCOCC5)c([N+](=O)[O-])c4)c(Oc4cnc5[nH]ccc5c4)c3)CC2)=C(c2ccc(Cl)cc2)C1 [Venetoclax] + C1CN(CCC1(C(=O)N[C@@H](CCO)C2=CC=C(C=C2)Cl)N)C3=NC=NC4=C3C=CN4 [Capivasertib] (first compound max 1 µM, 7x7, partner max 3 µM)	-0.0218	-0.057	-0.0728	-0.0379	-0.0226	-0.0275	-0.0592	-0.066	-0.0259	-0.0211	0.0155	-0.0102	-0.0081	0.0055	-0.0236	-0.027	-0.046	0.0559	-0.0467	-0.0236
CC1(C)CCC(CN2CCN(c3ccc(C(=O)NS(=O)(=O)c4ccc(NCC5CCOCC5)c([N+](=O)[O-])c4)c(Oc4cnc5[nH]ccc5c4)c3)CC2)=C(c2ccc(Cl)cc2)C1 [Venetoclax] + Cc1cc2ncnn2cc1Nc1ncc2c(n1)n(C1CCOCC1)c(=O)n2C [AZD7648] (first compound max 1 µM, 7x7, partner max 10 µM)	-0.0345	-0.0116	-0.093	-0.0308	-0.0373	0.0114	-0.0201	-0.0272	0.0049	-0.0053	0.0109	0.0285	-0.0427	-0.0405	-0.0362	-0.0088	-0.0174	0.0378	-0.0205	-0.0696
CC1(C)CCC(CN2CCN(c3ccc(C(=O)NS(=O)(=O)c4ccc(NCC5CCOCC5)c([N+](=O)[O-])c4)c(Oc4cnc5[nH]ccc5c4)c3)CC2)=C(c2ccc(Cl)cc2)C1 [Venetoclax] + COc1cc(Nc2ncc3c(n2)-c2ccc(Cl)cc2C(c2c(F)cccc2OC)=NC3)ccc1C(=O)O [Alisertib] (first compound max 1 µM, 7x7, partner max 10 µM)	-0.0206	-0.0573	-0.107	-0.0192	0.0506	-0.0425	-0.0278	-0.0311	-0.0094	-0.0274	0.0325	0.0721	-0.0219	0.103	-0.003	0.0151	-0.0121	0.085	0.0341	-0.0292
Cc1c2c(nn1C)CSCc1cc(n(C)n1)CSc1cc(c3ccccc3c1)OCCCc1c(C(=O)O)n(C)c3c-2c(Cl)ccc13 [AZD5991] + C[C@@H]1COCCN1C2=NC(=NC(=C2)C3(CC3)[S@](=N)(=O)C)C4=C5C=CNC5=NC=C4 [AZD6738] (first compound max 1 µM, 7x7, partner max 10 µM)	0.0528	-0.0091	-0.0038	0.0124	0.0482	-0.0091	0.056	-0.0074	0.0514	0.026	0.0461	0.008	0.0504	-0.0057	-0.0059	0.0148	0.0296	-0.009	0.0436	0.0308
CN(CCO)CC[C@H](CSc1ccccc1)Nc1ccc(S(=O)(=O)NC(=O)c2ccc(N3CCC([C@@H](O)c4ccccc4-c4ccc(Cl)cc4)CC3)cc2)cc1S(=O)(=O)C(F)(F)F [AZD4320] + Cn1cnc2c(F)c(Nc3ccc(Br)cc3Cl)c(C(=O)NOCCO)cc21 [Selumetinib] (first compound max 1 µM, 7x7, partner max 3 µM)	0.0414	-0.0211	0.0128	0.0355	0.0308	-0.0205	0.0162	-0.0124	0.0454	0.0177	0.0564	0.0202	0.0783	-0.0029	0.0368	0.0641	0.0375	-0.024	0.0226	-0.0195
C=CCn1c(=O)c2cnc(Nc3ccc(N4CCN(C)CC4)cc3)nc2n1-c1cccc(C(C)(C)O)n1 [AZD1775] + C1CN(CCC1(C(=O)N[C@@H](CCO)C2=CC=C(C=C2)Cl)N)C3=NC=NC4=C3C=CN4 [Capivasertib] (first compound max 3 µM, partner max 3 µM)	-0.0905	-0.005	-0.0802	-0.004	-0.034	-0.0771	-0.0298	0.0078	-0.0487	0.0174	-0.0047	0.0216	0.0054	-0.0276	0.0233	-0.101	-0.0326	0.0629	-0.0132	-0.083
Cc1c2c(nn1C)CSCc1cc(n(C)n1)CSc1cc(c3ccccc3c1)OCCCc1c(C(=O)O)n(C)c3c-2c(Cl)ccc13 [AZD5991] + CC1(C)CCC(CN2CCN(c3ccc(C(=O)NS(=O)(=O)c4ccc(NCC5CCOCC5)c([N+](=O)[O-])c4)c(Oc4cnc5[nH]ccc5c4)c3)CC2)=C(c2ccc(Cl)cc2)C1 [Venetoclax] (first compound max 1 µM, 7x7, partner max 1 µM)	0.052	0.0157	-0.0914	-0.0008	0.0081	-0.0019	-0.0378	-0.0519	0.0005	-0.0035	-0.0051	0.007	-0.0013	0.0071	-0.0379	-0.0253	0.0353	0.0301	0.0306	-0.0605
Cc1cc2ncnn2cc1Nc1ncc2c(n1)n(C1CCOCC1)c(=O)n2C [AZD7648] + CCN(CCO)CCCOc1ccc2c(Nc3cc(CC(=O)Nc4cccc(F)c4)[nH]n3)ncnc2c1 [AZD2811] (first compound max 10 µM, 7x7, partner max 1 µM)	0.0564	-0.0264	-0.0041	-0.0098	-0.0243	0.0195	0.0558	-0.0077	-0.0089	0.0137	0.0089	0.0363	0.013	-0.0803	-0.0094	0.0059	0.0578	0.0266	0.0309	0.0038
